Legend:
CLP-induced sepsis = assay: Cecal ligation and puncture (CLP) sepsis model, xyphoid temperature; format: in vivo; settings: CLP mice; SUL-138 5 mg/kg s.c. 2 hours before and 8 hours after surgery; 24 hr after procedure
Experimental: Male C57/BL6J mice were housed at room temperature at a light-dark cycle of 12:12 hour. Animals were fed ad libitum using standard animal lab chow and they had free access to drinking water at all times.
To induce sepsis, the standard cecal ligation and puncture (CLP) model was used. Animals were anesthetized by subcutaneous injection of xylazine/ketamine (100/10 mg/kg), followed by administration of buprenorphine (0.1 mg/kg) as analgesic. After confirmation of anesthesia by lack of response to paw pinch and eye reflex, the abdomen was shaved, cleaned, and de-germed using a povidone-iodine solution before a 1-cm midline incision was made. The cecum was ligated with a 6-0 suture at half the distance between distal pole and the base of the cecum and punctured once with a 21-Gauge needle (‘through-and-through’ from mesenteric toward anti-mesenteric direction) which is an accepted model for ‘mid-grade’ sepsis. A small amount of stool (2-3 mm) was then extruded to ensure wound patency. The cecum was repositioned, thereby taking care not to spill fecal material on the wound edges, followed by closure of the abdomen by running sutures to the abdominal musculature and short interrupted sutures to the skin. Next, 1 ml of saline (warmed, 0.9% NaCl s.c.) was administered to compensate for the expected relative volume depletion due to the onset of sepsis.
Mice recovered at 26-28° C. […]

TNFα mRNA expression = assay: Inhibition of LPS-induced TNFα mRNA expression in HUVEC; format: cell-based, Human; settings: 10 μM for 30 min, then LPS 24 hours
Experimental: (§1) Human Umbilical Cord Endothelial Cells (HUVEC, Lonza CC-2519) were maintained on 1% gelatin-coated culture flasks in RPMI1640 medium containing 20% fetal bovine serum, 2 mM Glutamine (Sigma-Aldrich), 1% Penicillin-Streptomycin solution (Sigma-Aldrich) and 50 μg/ml Bovine Pituitary Extract (Invitrogen). HUVEC were passaged by trypsinization when the cultures reach a confluency of 70%. For all experiments, HUVEC were seeded at 0.6·10^5 cells/cm^2 and allowed to adhere for 24 hours.
HUVEC and NRK52E cells were pre-incubated with SUL compounds (10 μM) for 30 min and subsequently exposed to LPS for 24 hours under standard culture conditions. Cells were lysed in triZOL reagens (Invitrogen) and total RNA isolated according to manufacturers' instruction. 1 μg total RNA per sample was reverse transcribed using the FirstAid Reverse Transcription Kit (ThermoFisher). Copy-DNA equivalents of 5 ng total RNA were amplified on a ViiA7 Real-time PCR system (ThermoFisher, Waltham, Mass.) using iTaq Universal SYBR Green Supermix (Bio-Rad, Hercules, Calif.) and primers specific for tumor necrosis factor alpha, interleukin 1 beta, interleukin-6 and beta actin as loading control. Amplification was performed for 40 cycles of 95° C. for 30 s, 60° C. for 1 min. Relative mRNA expression was calculated as 2^−(Cq^gene^−Cq^reference^) and normalized to unstimulated control cells (100% inhibition) and vehicle-treated and LPS exposed cells (0% inhibition). The following primers were used: […]

HUVEC [1] = assay: Cell viability after hypothermia-rewarming stress (Neutral Red); format: cell-based, Human; settings: 10 μM for 1 hour, 4° C. for 24 hours followed by 37° C. for 3 hours
Experimental: as §1
HUVEC were pre-treated with BN-80933, SUL-138 or SUL-150 (all 10 μM) for 1 hour in a humidified incubator at 37° C. Following pre-treatment, HUVEC were placed in a cold room (2-8° C.) for 24 hours and subsequently placed back at 37° C. for a 3 hour rewarming period. After 1 hour of rewarming, cell culture medium was replaced by prewarmed and filtered 0.4 mg/mL Neutral Red (#N463 8, Sigma-Aldrich) in culture medium. After the remaining 2 hour rewarming period, HUVEC were washed with PBS and NRU was solubilized in 100 μL resorption solution (50% ethanol, 1% ascetic acid in dH2O). The absorbance was measured at a wavelength of 550 nm on a BioTek ELx808 plate reader. The recorded OD550 nm values were normalized to control samples that were maintained at 37° C. at all times, which were assumed to be 100% viable.

HUVEC [2] = assay: LPS-induced mitochondrial oxidative stress in HUVEC (MitoSOX); format: cell-based, Human; settings: SUL-138 added one hour prior to LPS
Experimental: Human Umbilical Vein Endothelial cells (HUVEC) were obtained from the RuG/UMCG Endothelial Cell Facility. Primary isolates of umbilical cords were mixed and subsequently cultured on HUVEC culture medium, consisted of RPMI 1640 (Lonza, art.nr. BE12-115F) supplemented with 20% heat-inactivated fetal calf serum (ThermoFisher Scientific, art.nr. 10082147), 2 mM 1-glutamine (Life Technologies art.nr. 25030), 5 U/ml heparin (Leo Pharmaceutical Products), 1% Penicillin/Streptomycin (Sigma-Aldrich art.nr. P4333), and 50 μg/ml EC growth factor supplement from (Sigma-Aldrich, art.nr. E2759).
Primary HUVECs were cultured in 75-cm2 tissue culture flasks (Corning, art.nr. 430720U) at 37° C. under 5% CO2/95% air. HUVECs were used for experiments up to passage 8. Experiments were performed in 6-well (Corning art.nr. 3506) or 96-well culture plates (Corning, art.nr. 3596), at 80% confluency. Cells were stimulated with LPS E. coli 0111:B4 (Sigma-Aldrich, art.nr. L2630) in different concentrations. Cells were detached with trypsin (Sigma-Aldrich, art.nr. 25300054). All compounds were dissolved in Hanks Balanced Salt Solution (Lonza, art.nr. 10-527F). […]
Cells and mitochondria were incubated and measured according to manufacturer's protocol in the Synergy H4 micro plate reader (Bio-Tek) at an excitation/emission rate of 548/574 nm.

`Cc1c(C)c2c(c(C)c1O)CC[C@@](C)(C(=O)N1CCN(CCO)CC1)O2` [SUL-138, (S)-(6-hydroxy-2,5,7,8-tetramethylchroman-2-yl)(4-(2-hydroxyethyl)piperazin-1-yl)methanone] was tested. Which xiphoid temperature (CLP-induced sepsis) did it give?
Its xiphoid temperature is “restored after 24 hours”.

What about the “inhibition of LPS-induced mRNA expression of TNFα” value (TNFα mRNA expression) of the same compound?
Its value is 81.4 ± 4.5 %.

What about the “reduction in cell viability versus normothermic control cells” value (HUVEC [1]) of the same compound?
Its value is roughly 15%.

What about the “LPS induced mitochondrial oxidative stress (MitoSOX)” value (HUVEC [2]) of the same compound?
The value was “reduces LPS induced mitochondrial oxidative stress”.

Source: US20230202997A1, “CHROMANOL, QUINONE OR HYDROQUINONE COMPOUNDS FOR TREATMENT OF SEPSIS” (Sulfateq B.V., priority 2020, published 2023)
